Laboratory results: article PMC5603587, “Pharmacological inhibition of CaMKK2 with the selective antagonist STO-609 regresses NAFLD” (Scientific Reports, 2017)
Read-outs that look alike come from different tables or passages of the source.

Legend:
[1] = plasma pharmacokinetics after a single i.p. dose; format: in vivo; conditions: male, C57BL/6 J, ip, mouse; for AUC(0-t): read-out: AUC 0-24, plasma
Description: (§1) Plasma samples were prepared by mixing 5.0 μl of plasma with 45 μl of ice-cold MeOH followed by centrifugation at 15,000 × g for 15 min to remove protein. The resulting supernates were transferred into autosampler vials for analysis. Tissues (liver, intestine, kidney, pancreas, spleen, lung, heart, testis, white adipose tissue, gastrocnemius and brain) were weighed and homogenized in H2O/MeOH (1:1 v/v, 100 mg tissue in 600 μl). A volume of 200 μl of MeOH was added to 100 μl of tissue extracts. After vortexing and centrifugation (15 min at 15,000 × g), each supernate was transferred to an autosampler vial and 5.0 μl was injected to a system combining ultra-high performance liquid chromatography (UHPLC) and quadrupole time of flight mass spectrometry (QTOFMS) for analysis. The concentration of STO-609 was calculated based on standard curves in the corresponding matrices. The pharmacokinetic parameters were calculated using non-compartmental analysis with PKSolver[20]. The linear trapezoidal rule was used for area under the curve (AUC) calculation.
(§2) Separation of STO-609 and its metabolites was achieved using a LC-QTOFMS system (Agilent Technologies, Santa Clara, CA) equipped with a 100 mm × 2.1 mm (Agilent XDB C18) column as previously described. Briefly, the column temperature was maintained at 45 °C. The flow rate was maintained at 0.3 ml/min with a gradient ranging from 2% to 98% aqueous acetonitrile containing 0.1% formic acid over a 15 min run. QTOFMS was operated in positive mode with electrospray ionization. Ultra high pure nitrogen was applied as the drying (12 L/min) and collision gas. The drying gas temperature was set at 325°C and nebulizer pressure was maintained at 35 psi. Capillary voltages were set at 3.5 kV. During mass spectrometry, real time mass correction and accurate mass were achieved by continuously measuring standard reference ions at m/z 121.0508, 922.0098 in the positive mode. The MS/MS of STO-609 and its metabolites was performed in targeted mode with a default isolation width of 4 m/z and collision energy ramp ranging from 20 to 50 V. Mass chromatograms and mass spectra were acquired by MassHunter® Workstation data Acquisition software (Agilent, Santa Clara, CA) in centroid and profile formats from m/z 100 to 1000. The acquisition rate was set as 1.5 spectra per second. Statistical analysis was conducted using Student’s independent t-test. Data are presented as mean ± s.e.m.

[2] = tissue distribution after a single i.p. dose; format: in vivo; conditions: ip, 30 μM/kg i.p., mouse; for Cmax: 30 μM/kg
Description: as §1, §2

AUC(0-inf) ([1]; 30 μM/kg i.p.): 317 µM·h
CL/F ([1]; 30 μM/kg i.p.): 1.5 mL/min/kg
Cmax ([1]; 30 μM/kg i.p.): 32600 nM
AUC(0-t) ([1]; 30 μM/kg i.p.): 245 µM·h
half-life ([1]; 30 μM/kg i.p., read-out: t½, plasma (converted)): 12.2 h
AUC(0-inf) ([1]; 300 μM/kg i.p.): 3250 µM·h
CL/F ([1]; 300 μM/kg i.p.): 1.5 mL/min/kg
Cmax ([1]; 300 μM/kg i.p.): 473000 nM
AUC(0-t) ([1]; 300 μM/kg i.p.): 2930 µM·h
half-life ([1]; 300 μM/kg i.p., read-out: t½, plasma (converted)): 7.93 h
half-life ([1]; 30 and 300 μM/kg i.p., read-out: t½, plasma, over the doses): 8 to 12 h
half-life ([2]; C57BL/6J, intestine, read-out: t½, intestine (converted)): 3.85 h
half-life ([2]; C57BL/6J, kidney, read-out: t½, kidney (converted)): 8.5 h
Cmax ([2]; C57BL/6J, intestine, read-out: Cmax, intestine): 517 nM
Cmax ([2]; C57BL/6J, intestine, read-out: Cmax, intestine (text)): ~500 nM
Cmax ([2]; C57BL/6J, pancreas, read-out: Cmax, pancreas): 329 nM
half-life ([2]; C57BL/6J, pancreas, read-out: t½, pancreas (converted)): 3.18 h
half-life ([2]; C57BL/6J, spleen, read-out: t½, spleen (converted)): 4 h
half-life ([2]; male, C57BL/6 J, brain, read-out: t½, brain (converted)): 5.21 h
half-life ([2]; male, C57BL/6 J, gastrocnemius, read-out: t½, gastrocnemius (converted)): 5.83 h
half-life ([2]; male, C57BL/6 J, heart, read-out: t½, heart (converted)): 3.01 h
half-life ([2]; male, C57BL/6 J, liver, read-out: t½, liver (converted)): 3.74 h
half-life ([2]; male, C57BL/6 J, lung, read-out: t½, lung (converted)): 3.24 h
Cmax ([2]; male, C57BL/6 J, gastrocnemius, read-out: Cmax, gastrocnemius): 84 nM
Cmax ([2]; male, C57BL/6 J, heart, read-out: Cmax, heart): 293 nM
Cmax ([2]; male, C57BL/6 J, spleen, read-out: Cmax, spleen): 341 nM
Cmax ([2]; male, C57BL/6 J, testis, read-out: Cmax, testis): 209 nM
Cmax ([2]; male, C57BL/6 J, white adipose tissue, read-out: Cmax, white adipose tissue): 137 nM
half-life ([2]; male, C57BL/6 J, testis, read-out: t½, testis (converted)): 3.95 h
half-life ([2]; male, C57BL/6 J, white adipose tissue, read-out: t½, white adipose tissue (converted)): 3.93 h
Compound: O=C(O)c1ccc2c3c1cccc3c(=O)n1c3ccccc3nc21 [STO-609^S]
